Experimental data from patent US10948480B2, “Immunity to folate receptors” (priority 2006, dated 2021).
“And” between values parts separate entries of the source, which are not always exact repeats. Identical values can stand only once.

What was measured:
[1] = test system: PBMCs (T cells); assay: 10-day IFN-γ ELIspot for low-frequency T cells; assay type: cell-based, human; conditions: for Patients Proportion (%) responding: breast and ovarian cancer patients; for Patients Proportion (%) responding / Healthy Donor Proportion (%) responding: 10 μg/mL polypeptide, positive = p<0.05 vs no antigen and >1:100,000; for Healthy Donor Proportion (%) responding: healthy donors
Experimental: An equal volume of Hank's balanced salt solution (HBSS) was added to the blood samples. Twenty-five mL of diluted blood was overlaid onto 15 mL of Ficoll-Paque in a 50 mL conical test tube centrifuged at 374×g for 35 minutes at room temperature. Following centrifugation, the buffy coats were centrifuged (12 minutes, 216×g). The cell pellets were washed and resuspended in freezing media (RPMI supplemented with 12.5% HSA, penicillin, streptomycin, and 2 mM glutamine). Cells were adjusted to 20×10^6/mL cells, and an equal volume of cold 12.5% HSA RPMI containing 25% DMSO (Sigma D2650) was added. Cells were aliquoted and transferred to a −80° C. freezer. After overnight incubation, the vials were transferred to liquid nitrogen.
For in vitro assay, each vial of cells was thawed, and the contents were transferred to a test tube containing 12 mL of cell culture media. Following centrifugation, the cells were resuspended in 2-3 mL of medium, and viability was determined by dye exclusion. The mean number of PBMC purified from the blood of donors was 1.6±0.07×10^6 cells/mL of whole blood for healthy donors and 1.0±0.07×10^6/mL for cancer patients (p<0.0001). This cryopreservation and thawing procedure was optimized for recovery of antigen-specific T cell function (Disis et al., J. Immunol. Methods, 308(1-2):13-8 (2006)).
A 10-day ELIspot for detecting low-frequency T cells was used to determine reactivity to the FRα-derived polypeptides (Table 1). ELIspots were carried out in groups of two donors (two healthy donors, one healthy donor/one cancer patient, or two cancer patients). The assay was carried out as described elsewhere (Knutson et al., J. Clin. Invest., 107:477-84 (2001)). On day 1, 2.5×10^5 PBMCs/well were plated into 96-well plates in 3-well replicates in 200 μL of RPMI-1640 containing L-glutamine, penicillin, streptomycin, and 10% fetal calf serum (T-cell medium) in the presence or absence of 10 μg/mL polypeptide antigen. The cells were incubated at 37° C. and IL-2 (Zeptometric, Inc., Buffalo, N.Y.) was added to 10 U/mL on day 5. On day 8, 2.5×10^5/well irradiated autologous PBMCs and 10 μg/mL antigens were added. On day 9, the cells were transferred to an anti-IFN-γ-coated nitrocellulose (NC)-plate (Millipore Corporation, Bedford, Mass.). The NC-plate was incubated (37° C.) for a further 20-24 hours followed by washing three times using PBS containing 0.05% Tween-20. The plate was then incubated for 2.5 hours at RT in PBS with 5 μg/mL biotinylated anti-IFN-γ Ab, washed in PBS, and further incubated with 100 μL/well avidin-horseradish peroxidase (HRP, Vector Laboratories, Burlingame, Calif.)) for 2 hours at room temperature. After three washes in PBS, the plate was incubated with 100 μL/well HRP-colorimetric substrate (Vector Laboratories) for 20-30 minutes, rinsed with cool tap water, and allowed to dry completely. The nitrocellulose plates were read on an AID ELIspot reader (Cell Technology, Inc., Columbia, Md.; reader software v.3.1.1.). […] A 17-amino acid polypeptide (KISQAVHAAHAEINEAG; SEQ ID NO: 1) derived from chicken egg ovalbumin, produced in the same fashion as the FRα polypeptides, was used as a control polypeptide. […] The anti-IFN-γ and biotinylated anti-IFN-γ antibody pair were obtained from Mabtech (Sweden).
The T cell magnitude for each donor was summed across all 14 polypeptides which, along with the response multiplicity, was compared with age using regression. Student's t test was used for means unless the data were not normally distributed, in which case Mann-Whitney test was used. Fisher's Exact Test was used for comparing proportions. A proportion was considered elevated, relative to other polypeptides, if that proportion was statistically elevated relative to the mean proportion, 8.7%, which is the ratio of the total number of significant (p<0.05, two-tailed t test) polypeptide-specific responses over the total number of donors. […]

[2] = test system: PBMC (CD4 and CD8 T cells); assay: IFN-γ cytokine flow cytometry; assay type: cell-based, human; conditions: PBMC from three patients that had responded to FR56
Experimental: PBMC were cultured with peptide (10 μg/mL) for seven days. IL-2 (20 U/mL) were added on Day 3. After seven days, the cells were distributed into a 96-well plate with fresh irradiated autologous PBMC. Either medium alone or medium supplemented with PHA-L (20 μg/well) or recall polypeptide (10 μg/well) was added to the appropriate wells for 29 hours. Golgi-Stop was added for the last five hours followed by washing in PBS-0.5% BSA. The cells were resuspended in the same buffer containing anti-CD4-FITC and anti-CD8-APC for 30 minutes, followed by washes and fixing. The cells were permeabilized alone or with unconjugated anti-human IFN-γ (adsorption control) followed by washing and incubation with anti-human anti-IFN-γ-APC for 30 minutes. The cells were washed, fixed, and analyzed using a BD Biosciences FACscan flow cytometer and CellQuest Pro Software (version 4.0.2., BD Biosciences). A response to antigen was considered as positive if there was at least a 50% increase in IFN-γ[…] cells, and it was blocked by the adsorption control.

[3] = test system: antibodies in diluted serums; assay type: binding, human

ACKRHFIQDTCLYECS (listed as Homo sapiens) [FR95]
Patients Proportion (%) responding [1]: 23%
Healthy Donor Proportion (%) responding [1]: 6%

CKSNWHKGWNWTSGFN (listed as Homo sapiens) [FR152]
Patients Proportion (%) responding [1]: 23%
Healthy Donor Proportion (%) responding [1]: 6%

DCEQWWEDCRTSYTCK (listed as Homo sapiens) [FR138]
Patients Proportion (%) responding [1]: 30%
Healthy Donor Proportion (%) responding [1]: 22%

KDVSYLYRFNWNHCGEMA (listed as Homo sapiens) [FR76]
Patients Proportion (%) responding [1]: 13%
Healthy Donor Proportion (%) responding [1]: 11%

KISQAVHAAHAEINEAG (listed as Gallus gallus) [ovalbumin-derived control polypeptide, reference compound]
responses in patients vs healthy donors ([1]; comparison of the two populations (FIG. 3A)): not different

LGPWIQQVDQSWRKERV (listed as Homo sapiens) [FR113]
Healthy Donor Proportion (%) responding [1]: 0%

LLVWVAVVGEAQTRI (listed as Homo sapiens) [FR12]
Patients Proportion (%) responding [1]: 7%
Healthy Donor Proportion (%) responding [1]: 6%

MTTQLLLLLVWVAVVGEAQ (listed as Homo sapiens) [FR5]
Patients Proportion (%) responding [1]: 17%
Healthy Donor Proportion (%) responding [1]: 6%

PWAAWPFLLSLALMLLWL (listed as Homo sapiens) [FR238]
Patients Proportion (%) responding [1]: 23%

QCRPWRKNACCSTNT (listed as Homo sapiens) [FR56]
ELIspot response ([1]; healthy donor 15, no antigen control 5±1): 3±1 spots/well
Healthy Donor Proportion (%) responding [1]: 6%
recognition by ovarian vs breast cancer patients ([1]; p=0.05): recognized more often
ELIspot response ([1]; patient 37, mean±s.e.m., n=3, no antigen 26±2): 183±17 spots/well
patients with CD4 T cell response [2]: All three
patients with CD8 T cell response [2]: two of three

RTELLNVCMNAKHHKEK (listed as Homo sapiens) [FR30]
Healthy Donor Proportion (%) responding [1]: 6%

RTSYTCKSNWHKGWNWT (listed as Homo sapiens) [FR147]
Patients Proportion (%) responding [1]: 40%
Healthy Donor Proportion (%) responding [1]: 22%

VARFYAAAMSGAGPWA (listed as Homo sapiens) [FR225]
Patients Proportion (%) responding [1]: 7%
Healthy Donor Proportion (%) responding [1]: 22%

VDQSWRKERVLNVPL (listed as Homo sapiens) [FR120]
Patients Proportion (%) responding [1]: 13%
Healthy Donor Proportion (%) responding [1]: 11%

WHKGWNWTSGFNKCAVGA (listed as Homo sapiens) [FR156]
Patients Proportion (%) responding [1]: 23%
Healthy Donor Proportion (%) responding [1]: 17%

tetanus toxin [TT]
Antibody responses [3]: 30 ± 4 µg/mL and 27 ± 4 µg/mL
